# Data: patent US6150355A, “Phenylpiperidine derivative” (Kyowa Hakko Kogyo Co., Ltd., priority 1995, dated 2000)
# What was measured:
# ddy male mice = assay: Acute Toxicity Test (minimum lethal dose); assay type: in vivo; conditions: intraperitoneal, ddy male mice 20±1 g, mortality seven days after administration
# Description: Test compounds were intraperitoneally administered to groups of ddy male mice weighing 20±1 g.
# male mice = assay: Evaluation Test of Analgesic Activity (acetic acid intraperitoneally, number of risings); assay type: in vivo; conditions: Mus musculus, po, 10 mg/kg orally, after 1 hour 0.7% acetic acid i.p. 0.1 ml per 10 g, number of risings for 5 minutes, 10 minutes after, vs control, read-out: Inhibition Rate
# Procedure: Evaluation Test of Analgesic Activity
# Test compounds (10 mg/kg) were orally administered to groups of male mice, each group consisting of 4 to 12 mice, and after 1 hour, the mice were administered intraperitoneally with a 0.7% acetic acid aqueous solution in a dose of 0.1 ml per weight of 10 g. Then, the number of the risings manifested for 5 minutes 10 minutes after the administration was compared with a control group to calculate inhibition rate.
structure (smiles),measurement,setting,value
"OCc1ccc2c(c1)C(N1CCC(O)(c3cccc(C(F)(F)F)c3)CC1)c1ccccc1CO2 (centres unmarked) [Compound 24, 11-[4-Hydroxy-4-(3-trifluoromethylphenyl)piperidine-1-yl]-2-hydroxymethyl-6,11-dihydrodibenzo[b,e] oxepine]",minimum lethal dose (MLD),ddy male mice,> 100 mg/kg
same,inhibition in vivo at 10 mg/kg,male mice,100%
"CCc1ccc2c(c1)C(N1CCC(O)(c3ccccc3)CC1)c1ccccc1CO2 (centres unmarked) [Compound 8, 2-Ethyl-11-(4-hydroxy-4-phenylpiperidine-1-yl)-6,11-dihydrodibenzo[b,e] oxepine]",minimum lethal dose (MLD),ddy male mice,> 100 mg/kg
same,inhibition in vivo at 10 mg/kg,male mice,94%
"Cc1ccc2c(c1)C(N1CCC(O)(c3ccccc3)CC1)c1ccccc1CO2 (centres unmarked) [Compound 2, 11-(4-Hydroxy-4-phenylpiperidine-1-yl)-2-methyl-6,11-dihydrodibenzo[b,e] oxepine]",minimum lethal dose (MLD),ddy male mice,> 100 mg/kg
same,inhibition in vivo at 10 mg/kg,male mice,83%
"Cc1ccc2c(c1)C(N1CCC(O)(c3cccc(C(F)(F)F)c3)CC1)c1ccccc1CO2 (centres unmarked) [Compound 4, 11-[4-Hydroxy-4-(3-trifluoromethylphenyl)piperidine-1-yl]-2-methyl-6,11-dihydrodibenzo[b,e] oxepine]",minimum lethal dose (MLD),ddy male mice,> 100 mg/kg
same,inhibition in vivo at 10 mg/kg,male mice,96%
"CC(O)c1ccc2c(c1)C(N1CCC(O)(c3ccccc3)CC1)c1ccccc1CO2 (centres unmarked) [Compound 22, 11-(4-Hydroxy-40phenylpiperidine-1-yl)-2-(1-hydroxyethyl)-6,11-dihydrodibenzo[b,e] oxepine]",minimum lethal dose (MLD),ddy male mice,> 100 mg/kg
same,inhibition in vivo at 10 mg/kg,male mice,100%
"Cc1ccc2c(c1)C(N1CCC(O)(c3ccccc3)CC1)c1cccnc1CO2 (centres unmarked) [Compound 27, 5-(4-Hydroxy-4-phenylpiperidine-1-yl)-7-methyl-5,11-dihydrobenzo[3,4-b] oxepinopyridine]",inhibition in vivo at 10 mg/kg,male mice,100%
"Cc1ccc2c(c1)C(N1CCC(O)(c3ccc(Cl)cc3)CC1)c1ccccc1CO2 (centres unmarked) [Compound 5, 11-[4-(4-Chlorophenyl)-4-hydroxypiperidine-1-yl]-2-methyl-6,11-dihydrodibenzo[b,e] oxepine]",minimum lethal dose (MLD),ddy male mice,> 100 mg/kg
same,inhibition in vivo at 10 mg/kg,male mice,72%
"Cc1cccc(C2(O)CCN(C3c4ccccc4COc4ccc(C)cc43)CC2)c1 (centres unmarked) [Compound 3, 11-[4-Hydroxy-4-(3-methylphenyl)piperidine-1-yl]-2-methyl-6,11-dihydrodibenzo[b,e] oxepine]",minimum lethal dose (MLD),ddy male mice,> 100 mg/kg
same,inhibition in vivo at 10 mg/kg,male mice,90%
"OCc1ccc2c(c1)C(N1CCC(O)(c3ccccc3)CC1)c1ccccc1CO2 (centres unmarked) [Compound 19, 11-(4-Hydroxy-4-phenylpiperidine-1-yl)-2-hydroxymethyl-6,11-dihydrodibenzo[b,e] oxepine]",minimum lethal dose (MLD),ddy male mice,> 100 mg/kg
same,inhibition in vivo at 10 mg/kg,male mice,76%
